In patent US9173875B2, “Treatment for nicotine-induced lung disease using peroxisome proliferator-activated receptor gamma agonists” (Los Angeles Biomedical Research Institute at Harbor-UCLA …, priority 2006, dated 2015):

How the values were obtained:
[1] = system: fetal alveolar type II (ATII) cells; assay: In vivo ATII cell proliferation assay (PCNA and SP-C double labeling) after in utero nicotine; set-up: species or system Sprague-Dawley rat
WI38 cells [2] = assay: Reversal experiment, immunofluorescence double staining (ADRP or lipid droplets and αSMA) in WI38 cells; format: cell-based, human
Method: Cells were grown in minimum essential medium (MEM) +10% fetal bovine serum at 37° C. in six-well plates, two well slides, and 60-mm and 100-mm culture dishes, as needed. […] Subsequently, the cells were treated with rosiglitazone (RGZ) (1×10^−5 M) (a PPARγ agonist), PTHrP (5×10^−7 M), or DBcAMP (1×10^−5 M) for 7 days, and the expression of PTHrP receptor, PPARγ, ADRP, calponin, and cSMA was determined by Western analysis and immunohistochemistry. Simultaneously, fibroblast function was characterized by measuring their capacity to take up triglycerides. Some experiments were performed in the presence of a specific PPARγ antagonist, GW9662. Medium containing fresh chemicals was added daily, and at the end of the experimental period the cells were processed as needed.
The lipogenic and myogenic status of cultured WI38 cells was assessed by simultaneous staining for either lipid droplets or ADRP and αSMA. Lipids were detected by using either oil red 0 staining or ADRP expression (polyclonal anti-ADRP 1:500), and αSMA expression was assessed by using anti-αSMA (1:1000, mouse monoclonal IgG2a, Sigma, catalog No. A2547) primary antibody. […] At the end of the experimental period, slides were fixed in freshly prepared 4% paraformaldehyde. […] Slides were rinsed three times for 5 min and then mounted and visualized under a fluorescence microscope.

fetal rat lung explants = assay: In vitro ATII cell proliferation in lung explants (PCNA and SP-C labeling); format: cell-based; conditions: nicotine 24 h; P<0.05, n=4
Method: Explants derived from three to five litters of rats were used for each experiment during the course of the studies. Lungs were harvested from fetal rats under sterile conditions. The lung tissue was chopped into −1-mm cubes and incubated in 0.5 ml of Waymouth's MB-252/1 medium containing penicillin (100 U/ml)-streptomycin (100 U/ml) and Fungizone (2.5 μg/ml) in six-well plates while rocking on an oscillating platform (3 cycles/min) in 5% CO2-95% air at 37° C. The explants were allowed to attach for 1-2 h.
Cultured ATII cells or explants were treated with nicotine under various experimental conditions (see below), and cell proliferation was determined by Cell Proliferation Assay (Promega) or dual PCNA and SP-C labeling, respectively (see above).

ATII cells [3] = assay: Phospholipid synthesis ([3H]choline incorporation) by ATII cells treated in vitro; format: cell-based, rat; conditions: nicotine 1×10^−9 M, 24 h, in vitro
Method: (§1) Isolated ATII cells were cultured in DMEM+10% FBS in 6- and 96-well plates, 100-mm dishes, and T-75 flasks, as needed, and maintained at 37° C. in a humidified incubator containing 5% CO2-95% air. At 80-90% confluence, cells were processed for cell proliferation, differentiation, and metabolic studies (see below).
(§2) Incorporation of [methyl-3H]choline chloride (NEN Dupont) into saturated phosphatidylcholine was determined in monolayers of cultured explants and ATII cells. […] After incubation, explants and cells were washed three times with ice-cold PBS. The explants and the scraped cells were thoroughly homogenized, and the cellular lipids were extracted with chloroform-methanol (2:1) (Bligh and Dyer (1959) Can. J. Biochem. Physiol., 37: 911-917). The organic phase was dried under a stream of nitrogen at 60° C., resuspended in 0.5 ml of carbon tetrachloride containing 3.5 mg of osmium tetroxide, and left at room temperature for 15 min. The reaction mixture was redried under nitrogen and resuspended in 70 μl of chloroform-methanol (9:1, vol/vol). The lipid extracts were transferred to silica gel plates (Kodak, Rochester, N.Y.) and developed in a chloroform-methanolwater (65:25:4) solvent system. Pure dipalmitoyl phosphatidylcholine was used as the chromatographic standard. The developed plates were stained with bromothymol blue, blotted, and vacuum dried for 5 min at 90° C. Chromatogram spots corresponding to the migration of saturated phosphatidylcholine were scraped from the plates and counted by liquid scintillation spectrometry. The amounts of [methyl^3H]choline chloride incorporated into saturated phosphatidylcholine were expressed as disintegrations per minute per milligram of protein.

PTHrP receptor = target: T1, PTHrP receptor (Homo sapiens, UniProt Q03431); assay: PTHrP receptor binding assay; conditions: nicotine 1×10^−6 M
T1 construct: 10-12 μg membrane protein; endogenous in cells; host or cells: WI38 human embryonic lung fibroblasts (inferred; the assay text only says membrane protein)
T1 sequence (Q03431 27-593): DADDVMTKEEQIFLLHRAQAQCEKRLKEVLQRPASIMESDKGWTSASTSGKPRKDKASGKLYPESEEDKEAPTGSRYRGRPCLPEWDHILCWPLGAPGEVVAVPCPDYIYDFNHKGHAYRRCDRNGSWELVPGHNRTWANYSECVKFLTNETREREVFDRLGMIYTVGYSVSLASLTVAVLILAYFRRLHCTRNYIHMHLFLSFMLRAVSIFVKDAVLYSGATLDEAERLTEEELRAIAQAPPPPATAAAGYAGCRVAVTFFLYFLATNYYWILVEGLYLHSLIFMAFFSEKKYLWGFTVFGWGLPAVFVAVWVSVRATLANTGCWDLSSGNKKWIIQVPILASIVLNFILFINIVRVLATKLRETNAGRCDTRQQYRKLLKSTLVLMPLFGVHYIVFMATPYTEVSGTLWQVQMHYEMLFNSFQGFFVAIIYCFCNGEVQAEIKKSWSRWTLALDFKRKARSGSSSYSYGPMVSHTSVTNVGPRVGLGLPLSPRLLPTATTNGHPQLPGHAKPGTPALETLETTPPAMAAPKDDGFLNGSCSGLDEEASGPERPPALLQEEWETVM
Method: The receptor binding assay was carried out as previously described (Torday and Rehan (2002) Am. J. Physiol. Lung Cell Mol. Physiol. 283: L130-L135; Torday and Rehan (2003) Cell Biochem Biophys 37: 235-246). The assay mixture, in a total volume of 0.1 ml, contained 50 mM Tris.HCl (pH 7.4), 2 mM dithiothreitol, 10 mM EDTA, 10 μg/ml each of protease inhibitors (leupeptin, pepstatin, antipain, and aprotinin), 0.5 mM phenylmethylsulfonyl fluoride, 10 mg/ml BSA, 5 mM MgCl2, […] [1251]-Tyr34-PTHrP-(1-34) (specific activity 1,064 Ci/mmol), 10-12 μg membrane protein, and 1×10-10 to 1×10^−6 M PTHrP-(1-34). Triplicate samples were incubated for 30 min at 30° C. Reactions were stopped by the addition of 0.1 ml of homogenization buffer containing 20 mg/ml of BSA and placed in ice-cold water for 30 min, followed by centrifugation at 15,000 g for 1 min. The supernatant was aspirated, and the pellet was counted for radioactive content with a gamma counter (model 1470; Wallace, Gaithersburg, Md.). Nonspecific binding was determined in the presence of 1 μM nonradioactive PTHrP-(1-34). Specific binding of [^125I]-Tyr34-PTHrP-(1-34) was calculated as total binding minus nonspecific binding and expressed as femtomoles per milligrams of protein. […] The effect of nicotine (1×10^−6 M) on PTHrP receptor binding was examined without and with the nACh receptor antagonists D-tubocurarine, α-bungarotoxin, or mecamylamine (1×10^−9 to 1×10^−6 M).

WI38 cells [4] = assay: Reversal experiment, triglyceride (triolein) uptake by WI38 cells; format: cell-based, human; conditions: nicotine 7 days
WI38 cells [5] = system: WI38 cells
ATII cells [6] = system: ATII cells
ATII cells [7] = system: ATII cells; remark: listed apart in the source
Method: as §1
Briefly, [1,2-^13C2]glucose was purchased with >99% enrichment for the specified carbon positions from Isotech (Miamisburg, Ohio). Lung ATII cells were isolated from embryonic day 20 pups from specified treatment groups and cultured in T-75 tissue culture flasks. […] The [^13C]glucose label is readily incorporated into various metabolites in mammalian cells, including ribonucleic acid (through ribose synthesis), lactate (through glycolysis), glutamate (through the tricarboxylic acid cycle), and palmitate (through the formation of acetyl-CoA). As the molecular weight (atomic mass unit) of these molecules increases on incorporation of the heavier ^13C atoms derived from [1,2,^13C2]glucose, they can be separated and quantitatively analyzed by gas chromatography-mass spectrometry (MS) on the basis of changes in their mass-to-charge ratios (m/z). […]
Fatty acids in the cell culture medium were extracted by saponification of the TRIzol cell extract after removal of the RNA-containing supernatant. […] Palmitate was monitored at ion cluster m/z 270. […]

ATII cells [8] = assay: Western analysis of CCT-α and SP-B in ATII cells treated in vitro; format: cell-based, rat
Method: Protein extraction and Western blot analysis for SP-B and choline phosphate cytidylyltransferase-α (CCT-α) were performed using standard methods. […] Equal amounts of the protein from the supernatant were dissolved in electrophoresis sample buffer and subjected to SDS-polyacrylamide (4-12% gradient) gel electrophoresis followed by electrophoretic transfer to a nitrocellulose membrane. The membrane was blocked with 5% milk in 1× Tris-buffered saline containing 0.1% Tween 20 for 1 h and then incubated with rabbit anti-human SP-B polyclonal antibody (1:1,000 dilution; Chemicon) overnight at 4° C. The antibody for CCT-α (1:2,000 dilution) was a kind gift from Dr. Mallampalli (University of Iowa, Iowa City, Iowa). Subsequently, the membrane was washed with 1× Tris-buffered saline+0.1% Tween 20 and incubated with a 1:3,000 dilution of anti-rabbit horseradish peroxidase-linked whole antibody immunoglobulin G (Amersham, Arlington Heights, Ill.) for 1 h at room temperature, washed again, and developed with a chemiluminescent substrate (ECL, Amersham) following the manufacturer's protocol. The density of the SP-B and CCT-α bands was quantified using a scanning densitometer (Eagle Eye, Stratagene).

ATII cells [9] = assay: Western analysis of CCT-α and SP-B in ATII cells after in utero nicotine; format: in vivo, Sprague-Dawley rat
Method: Pathogen-free timed (embryonic day 0=day of mating) pregnant Sprague-Dawley rats (200-250 g body wt) were obtained from Charles River (Hollister, Calif.) at embryonic day 3 and allowed to acclimatize until embryonic day 6. […] The fetuses were extracted by cesarean section, and the lungs were snap frozen for later analysis or processed for ATII cell or fibroblast culture. […] Louis, Mo.; 0.25 mg/kg). All studies were approved by the Los Angeles Biomedical Research Institute Institutional Review Board and were conducted in accordance with the National Institutes of Health Guide for the Care and Use of Laboratory Animals. Protein extraction and Western blot analysis for SP-B and choline phosphate cytidylyltransferase-α (CCT-α) were performed using standard methods. […] Chemicon) overnight at 4° C. The antibody for CCT-α (1:2,000 dilution) was a kind gift from Dr. […] (University of Iowa, Iowa City, Iowa). […] The density of the SP-B and CCT-α bands was quantified using a scanning densitometer (Eagle Eye, Stratagene).

ATII cells [10] = assay: Phospholipid synthesis ([3H]choline incorporation into saturated phosphatidylcholine) by ATII cells after in utero nicotine; format: in vivo, Sprague-Dawley rat; conditions: nicotine 1 mg/kg in utero; vs control, P<0.05, n=6
Method: as §2

**Q.** `CN1CCCC1c1cccnc1` (stereo not shown) [nicotine] was tested. Which “increase in alveolar type II cell proliferation vs control group” value ([1]; nicotine 1 mg/kg i.p. once daily to dam, e6 to e20) did it give?
**A.** 2 fold

**Q.** What about the “ATII cell proliferation (PCNA and SP-C staining)” value ([1]; nicotine 1 mg/kg in utero, P<0.05, n=4) of the same compound?
**A.** almost twofold increase

**Q.** What about the “ADRP, lipid droplet and αSMA staining” value (WI38 cells [2]) of the same compound?
**A.** marked decreases in ADRP and lipid droplet staining and a marked increase in αSMA staining

**Q.** What about the “ATII cell proliferation in lung explants” value (fetal rat lung explants) of the same compound?
**A.** significantly increased

**Q.** What about the choline incorporation (ATII cells [3]) of the same compound?
**A.** significantly increased

**Q.** And the “decrease in PTHrP binding to its receptor” value (PTHrP receptor)?
**A.** 30%

**Q.** And the triolein uptake (WI38 cells [4])?
**A.** significant decrease

**Q.** What about the “expression of nACh receptors α3 and α7” value (WI38 cells [5]) of the same compound?
**A.** significant increases

**Q.** What about the “[13C]glucose labeling of the acetyl-CoA pool” value (ATII cells [6]; in utero nicotine) of the same compound?
**A.** modest increase

**Q.** And the “de novo palmitate synthesis as a function of total palmitate” value (ATII cells [6]; rat, in vivo)?
**A.** almost doubled

**Q.** And the “ribose synthesis via the nonoxidative transketolase pathway” value (ATII cells [6]; rat, in vivo)?
**A.** significant decrease

**Q.** What about the “ribose synthesis via the oxidative glucose-6-phosphate dehydrogenase pathway” value (ATII cells [6]; rat, in vivo) of the same compound?
**A.** significant increase

**Q.** And the “de novo palmitate synthesis or [13C]glucose labeling of acetyl-CoA” value (ATII cells [7])?
**A.** did not result in a significant change

**Q.** What about the “ribose synthesis via the oxidative or the nonoxidative pathway” value (ATII cells [7]) of the same compound?
**A.** did not alter

**Q.** And the SP-B expression (ATII cells [8]; direct nicotine treatment of cultured ATII cells)?
**A.** significant increase

**Q.** What about the CCT-α protein expression (ATII cells [8]; in vitro nicotine exposure) of the same compound?
**A.** significant increase

**Q.** What about the “steady-state SP-B protein level” value (ATII cells [9]; in utero nicotine, P<0.05, n=3) of the same compound?
**A.** significantly increased

**Q.** What about the CCT-α protein expression (ATII cells [9]; in vivo nicotine exposure) of the same compound?
**A.** significant increase

**Q.** What about the “[3H]choline incorporation into saturated phosphatidylcholine” value (ATII cells [10]) of the same compound?
**A.** significantly increased
